Measurements: patent publication US20010051646A1, “Method for the improvement of islet signaling in diabetes mellitus and for its prevention” (priority 2000, published 2001)
Marks after values point to notes of the source that are not given here.

Key:
[1] = system: healthy male volunteers; assay: First-human study of P32/98 with extended OGTT: active GLP-1, insulin and glucose; format: in vivo; conditions: for Maximum change in GLP-1, active (0-12h, median) / Maximum change in glucose (0-12h, median) / Maximum change in insulin (0-12h, median): OGTT; for Increase of mean insulin concentration after 75 g glucose at 10 min post-dose: within 40-55 min
Text: The 36 healthy male subjects were divided into 3 individual groups with each group containing 12 subjects. […] The subjects in all groups who were receiving placebo were given placebo at both dosing intervals.
Each subject participated in the pre-study and experimental phase, which were separated by a washout phase of at least 5 days. The follow-up examination was done at least 7 days after the last dose of study drug. The study procedures of the six periods were identical, except for the dose under investigation.
At each glucose tolerance test, subjects ingested 300 mL of a mono-/disaccharid solution equivalent to 75 g glucose (Dextro®O.G.-T, Boehringer Mannheim, FRG).
An extended OGTT was performed on Day 1 of each dosing period. Subjects ingested 300 mL of a mono-/disaccharid solution equivalent to 75 g glucose. […] Additionally other pharmacodynamic assessments that are well known in the art were taken.
Insulin: 4.7 ml blood was collected into 4.9 ml EDTA-tubes. Samples were centrifuged (1500 g, 10 min) and stored frozen at −70° C. until laboratory analysis.
Glucose: 1.2 ml blood was collected into 1.2 ml sodium fluoride tubes. Plasma samples were centrifuged at 1500 g for 10 min and stored frozen at −70° C. until laboratory analysis. GLP-1: 2.7 ml blood was collected in EDTA tubes and placed on ice or refrigerated, to which a dipeptidyl peptidase IV-inhibitor was added. The inhibitor was prepared in advance by researchers. Blood was collected in tubes and centrifuged immediately at 1000 g for 10 min in refrigerated centrifuge or the blood was placed in ice and centrifuged within 1 hour and aliquoted into equal samples. Blood was stored in appropriate aliquots at −70° C. (to avoid multiple freezing/thawing cycles) until laboratory analysis.

[2] = target: T1, PepT1 intestinal peptide transporter (Homo sapiens, UniProt P46059); assay: Active transport through the intestinal mucosa
T1 sequence (P46059 1-708): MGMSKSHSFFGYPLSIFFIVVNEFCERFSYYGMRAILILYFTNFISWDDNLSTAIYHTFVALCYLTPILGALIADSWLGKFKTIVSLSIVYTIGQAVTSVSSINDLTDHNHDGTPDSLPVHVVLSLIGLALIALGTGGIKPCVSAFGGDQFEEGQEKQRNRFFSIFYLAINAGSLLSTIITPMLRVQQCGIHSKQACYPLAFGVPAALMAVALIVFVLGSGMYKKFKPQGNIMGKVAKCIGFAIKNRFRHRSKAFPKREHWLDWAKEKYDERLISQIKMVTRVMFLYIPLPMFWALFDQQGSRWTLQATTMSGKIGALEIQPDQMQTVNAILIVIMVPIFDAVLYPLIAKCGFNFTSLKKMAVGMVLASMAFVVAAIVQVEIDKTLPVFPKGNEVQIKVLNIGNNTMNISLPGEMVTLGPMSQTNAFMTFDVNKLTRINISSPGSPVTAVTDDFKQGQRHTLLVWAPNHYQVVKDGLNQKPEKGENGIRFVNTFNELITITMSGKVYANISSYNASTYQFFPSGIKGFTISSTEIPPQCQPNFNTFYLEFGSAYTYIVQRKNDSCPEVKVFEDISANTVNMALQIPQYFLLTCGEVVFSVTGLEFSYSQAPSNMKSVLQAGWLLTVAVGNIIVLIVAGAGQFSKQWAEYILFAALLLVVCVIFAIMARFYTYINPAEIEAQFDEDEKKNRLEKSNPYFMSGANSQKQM

Substance: isoleucyl thiazolidine hemifumarate [P32/98]
- Baseline-corrected mean peak (Cmax) glucose concentration ([1]; 7.5 mg): exceeded 4.0 mmol/l
- Mean baseline-corrected glucose AUC ([1]; 7.5 mg): > 200 mmol·min/L
- Maximum change in GLP-1, active (0-12h, median) ([1]; 7.5 mg oral single dose): 4.10 pmol/L
- Maximum change in glucose (0-12h, median) ([1]; 7.5 mg oral single dose): 4.66 mmol/L
- Maximum change in insulin (0-12h, median) ([1]; 7.5 mg oral single dose): 41.86 μIU/ml
- Corrected AUC0→180 min of glucose concentrations after OGTT, Mean ± SD ([1]; 7.5 mg, periods 1-3): 299.7 ± 111.4 mmol·min
- Corrected Cmax of glucose concentrations 0-3 h after OGTT, Mean ± SD ([1]; 7.5 mg, periods 1-3): 4.94 ± 1.58 mmol
- Corrected glucose AUC0→180 min, Estimate (ANOVA comparison versus placebo) ([1]; 7.5 mg, periods 1-3): 75.8 mmol·min
- Corrected glucose Cmax, Estimate (ANOVA comparison versus placebo) ([1]; 7.5 mg, periods 1-3): 0.78 mmol
- Baseline-corrected mean peak (Cmax) glucose concentration ([1]; 15 mg): below 3.0 mmol/l
- Increase of group mean active GLP-1 concentration over pre-dose ([1]; 15 mg): 11.6 pmol/L
- Mean baseline-corrected glucose AUC ([1]; 15 mg): below 200 mmol*min/l
- Maximum change in GLP-1, active (0-12h, median) ([1]; 15 mg oral single dose): 10.00 pmol/L
- Maximum change in glucose (0-12h, median) ([1]; 15 mg oral single dose): 2.43 mmol/L
- Maximum change in insulin (0-12h, median) ([1]; 15 mg oral single dose): 29.67 μIU/ml
- Mean changes of glucose concentration at maximum ([1]; 15 mg, 60 mg and 240 mg dosing groups): 1.71 to 3.41 mmol/L
- Corrected AUC0→180 min of glucose concentrations after OGTT, Mean ± SD ([1]; 15 mg, periods 1-3): 130.9 ± 125.2 mmol·min
- Corrected Cmax of glucose concentrations 0-3 h after OGTT, Mean ± SD ([1]; 15 mg, periods 1-3): 2.92 ± 1.10 mmol
- Corrected glucose AUC0→180 min, Estimate (ANOVA comparison versus placebo) ([1]; 15 mg, periods 1-3): -93.0 mmol·min
- Corrected glucose Cmax, Estimate (ANOVA comparison versus placebo) ([1]; 15 mg, periods 1-3): −1.24* mmol
- Maximum change in GLP-1, active (0-12h, median) ([1]; 30 mg oral single dose): 10.60 pmol/L
- Maximum change in glucose (0-12h, median) ([1]; 30 mg oral single dose): 3.38 mmol/L
- Maximum change in insulin (0-12h, median) ([1]; 30 mg oral single dose): 59.84 μIU/ml
- Corrected AUC0→180 min of glucose concentrations after OGTT, Mean ± SD ([1]; 30 mg, periods 1-3): 116.1 ± 134.0 mmol·min
- Corrected Cmax of glucose concentrations 0-3 h after OGTT, Mean ± SD ([1]; 30 mg, periods 1-3): 3.26 ± 1.07 mmol
- Corrected glucose AUC0→180 min, Estimate (ANOVA comparison versus placebo) ([1]; 30 mg, periods 1-3): -107.7 mmol·min
- Corrected glucose Cmax, Estimate (ANOVA comparison versus placebo) ([1]; 30 mg, periods 1-3): -0.90 mmol
- Increase of mean insulin concentration after 75 g glucose at 10 min post-dose ([1]; 30 mg): 56.92 μIU/ml
- Maximum change in GLP-1, active (0-12h, median) ([1]; 60 mg oral single dose): 12.20 pmol/L
- Maximum change in glucose (0-12h, median) ([1]; 60 mg oral single dose): 2.92 mmol/L
- Maximum change in insulin (0-12h, median) ([1]; 60 mg oral single dose): 43.35 μIU/ml
- Corrected AUC0→180 min of glucose concentrations after OGTT, Mean ± SD ([1]; 60 mg, periods 4-6): 151.8 ± 99.2 mmol·min
- Corrected Cmax of glucose concentrations 0-3 h after OGTT, Mean ± SD ([1]; 60 mg, periods 4-6): 3.50 ± 1.66 mmol
- Corrected glucose AUC0→180 min, Estimate (ANOVA comparison versus placebo) ([1]; 60 mg, periods 4-6): -101.1 mmol·min
- Corrected glucose Cmax, Estimate (ANOVA comparison versus placebo) ([1]; 60 mg, periods 4-6): −1.41* mmol
- Maximum change in GLP-1, active (0-12h, median) ([1]; 120 mg oral single dose): 11.10 pmol/L
- Maximum change in glucose (0-12h, median) ([1]; 120 mg oral single dose): 2.39 mmol/L
- Maximum change in insulin (0-12h, median) ([1]; 120 mg oral single dose): 28.63 μIU/ml
- Corrected AUC0→180 min of glucose concentrations after OGTT, Mean ± SD ([1]; 120 mg, periods 4-6): 126.7 ± 147.3 mmol·min
- Corrected Cmax of glucose concentrations 0-3 h after OGTT, Mean ± SD ([1]; 120 mg, periods 4-6): 3.09 ± 1.47 mmol
- Corrected glucose AUC0→180 min, Estimate (ANOVA comparison versus placebo) ([1]; 120 mg, periods 4-6): −126-1* mmol*min/
- Corrected glucose Cmax, Estimate (ANOVA comparison versus placebo) ([1]; 120 mg, periods 4-6): −1.82** mmol
- Increase of mean insulin concentration after 75 g glucose at 10 min post-dose ([1]; 120 mg): 30.12 μIU/ml
- Baseline-corrected mean peak (Cmax) glucose concentration ([1]; 240 mg): below 3.0 mmol/l
- Increase of group mean active GLP-1 concentration over pre-dose ([1]; 240 mg): 15.99 pmol/L
- Mean baseline-corrected glucose AUC ([1]; 240 mg): below 200 mmol*min/l
- Maximum change in GLP-1, active (0-12h, median) ([1]; 240 mg oral single dose): 14.50 pmol/L
- Maximum change in glucose (0-12h, median) ([1]; 240 mg oral single dose): 1.73 mmol/L
- Maximum change in insulin (0-12h, median) ([1]; 240 mg oral single dose): 33.36 μIU/ml
- Corrected AUC0→180 min of glucose concentrations after OGTT, Mean ± SD ([1]; 240 mg, periods 4-6): 24.7 ± 66.6 mmol·min
- Corrected Cmax of glucose concentrations 0-3 h after OGTT, Mean ± SD ([1]; 240 mg, periods 4-6): 1.99 ± 0.69 mmol
- Corrected glucose AUC0→180 min, Estimate (ANOVA comparison versus placebo) ([1]; 240 mg, periods 4-6): −228.2*** mmol*min/
- Corrected glucose Cmax, Estimate (ANOVA comparison versus placebo) ([1]; 240 mg, periods 4-6): −2.92*** mmol
- Effect on active GLP-1 ([1]; 7.5-mg dose level): no effect discernible from placebo treatment
- Increase of glucose concentrations during the OGTT compared with placebo ([1]; 15-240 mg): significantly lower increase
- Insulin concentrations following stimulation with 75 g glucose ([1]; 120-240 mg): appeared to be decreased
- Transport via the PepT1 intestinal peptide transporter [2]: actively transported
